Values of other authors in paper PMC3345309 (Hepatology (Baltimore, Md.), 2012).

Tests used:
[1] = tested on: HCV Renilla reporter virus; details: ref [18]
[2] = tested on: NS5A-augmented HCV IRES-mediated translation; details: ref [18]

O=c1c(O)c(-c2ccc(O)c(O)c2)oc2cc(O)cc(O)c12 [Quercetin]
effect on virus production [1]: blocked
effect on NS5A-augmented IRES-mediated translation [2]: blocked
